Measured values from patent US20260240805A1, “ENTACTOGEN-ASSISTED THERAPY FOR ALCOHOL USE DISORDER AND ADDICTION-RELATED CONDITIONS AND COMORBIDITIES” (Solvonis Therapeutics Ireland Holdings Limited, priority 2021, published 2026).
Entries after “also recorded” stand apart in the source; their conditions may differ. Like-named read-outs stand apart in the source and are kept apart here.

Tests used:
alcohol relapse = conditions: only in conjunction with psychosocial interventions; cited from earlier work
[1] = cited from earlier work
AUD = conditions: early uncontrolled studies; cited from earlier work
patients with AUD [2] = test: Physiological measures, SUDS and Drug Effects during MDMA sessions (Example 8); format: in vivo, human
Method: (§1) Dosing with MDMA occurred twice during the eight-week course on weeks 3 and 6.
Physiological and tolerability effects during MDMA sessions: In total, 26 drug-assisted psychotherapy sessions with MDMA were administered during the trial. Temperature, blood pressure and heart rate were measured at t=0, before taking MDMA, then half-hourly up to t=2 hours, then hourly thereafter for a minimum of 6-hours from the time of dosing (see FIG. 7).
Subjective Units of Distress (SUDS) and Participant report of Drug Effects were also measured, hourly, throughout the MDMA sessions (see FIG. 7). […] Participants gave their own subjective score (0-10) of whether they felt Drug Effects, and the therapists also recorded their own objective score of how “altered” the participant appeared. There was no significant difference between Observers' and Participants' Drug Effects scores. Drug Effects rose expectedly over the first two hours, with a notable further increase after the booster dose was given at t=2 hours, and a subsequent plateau then decline over the following six hours.

CYP3A4 = CYP3A4 (Homo sapiens, UniProt P08684); conditions: single dose of MDMA of 1.5 mg/kg; cited from earlier work
Chain of CYP3A4 (P08684 whole entry): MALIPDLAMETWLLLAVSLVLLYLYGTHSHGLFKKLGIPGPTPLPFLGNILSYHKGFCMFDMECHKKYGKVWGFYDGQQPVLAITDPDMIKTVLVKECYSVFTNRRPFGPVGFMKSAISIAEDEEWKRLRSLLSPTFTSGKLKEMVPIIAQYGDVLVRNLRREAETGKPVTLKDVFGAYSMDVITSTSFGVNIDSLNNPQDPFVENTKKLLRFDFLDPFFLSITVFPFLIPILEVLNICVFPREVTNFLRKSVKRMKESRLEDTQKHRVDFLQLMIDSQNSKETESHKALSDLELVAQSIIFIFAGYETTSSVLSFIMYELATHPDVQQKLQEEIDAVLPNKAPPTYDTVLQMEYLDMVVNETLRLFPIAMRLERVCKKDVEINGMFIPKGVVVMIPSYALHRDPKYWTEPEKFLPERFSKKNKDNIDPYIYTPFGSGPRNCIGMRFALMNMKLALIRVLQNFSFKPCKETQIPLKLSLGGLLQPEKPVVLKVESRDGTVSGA

patients with AUD [3] = test: Adverse events and tolerability (Example 8); format: in vivo, human
Method: This Example details an open-label, within-subjects, safety and tolerability feasibility study that was conducted in 14 patients aged 18-65 years old diagnosed with AUD who had recently undergone detoxification, and received MDMA-assisted therapy.
as §1

[4] = cited from earlier work; remark: listed apart in the source
[5] = cited from earlier work; remark: listed apart in the source
patients with AUD [6] = test: Suicidality, C-SSRS (Example 8); format: in vivo, human; conditions: during the course of the study
Description: (§2) Following the end of the eight-week therapeutic course, participants carried out additional follow-up questionnaires.
Suicidality. Participants underwent the C-SSRS at screening, baseline, throughout the eight-week therapy course, in the week after each MDMA session and at the three-, six-, and nine-month follow-up visits.

individuals with PTSD = conditions: cited from earlier work
patients with AUD [7] = test: PHQ-9, GAD-7, psychosocial functioning and quality of life measures (Example 8); format: in vivo, human
[8] = doses of 100-125 mg; cited from earlier work
patients with AUD [9] = test: Profile Of Mood States (POMS), seven-day follow-up after MDMA sessions (Example 8); format: in vivo, human; conditions: daily for seven days after each MDMA session; 14 participants, 26 sessions
Description: as §2
Seven-day follow-up after MDMA sessions: Considerable medical literature and the popular press report the anecdotal observation of ecstasy users experiencing an acute ‘come-down’ effect and a drop in mood in the days after using the drug recreationally. In order to measure this prospectively with clinical MDMA, we measured participants' mood states by daily Profile Of Mood States (POMS) measurements for seven days after each MDMA session (see FIG. 9). Positive scores represent depressed affect, zero represents no change in mood/affect and results below zero represent a positively felt mood.

[10] = cited from earlier work; remark: listed apart in the source
patients with AUD [11] = test: Drinking behavior (TLFB, units of alcohol per week), open-label MDMA-assisted therapy study in AUD post-detox (Example 8); format: in vivo, human
[12] = system: patients diagnosed with AUD; test: Depression and anxiety levels, FIG. 3 and FIG. 4; format: in vivo, human; conditions: patients remaining at 9 months; 100% at screening
Method: Prior to undergoing the disclosed methods, specifically during the screening session, 12 patients were assessed for levels of depression. […] Directly after going through the detoxification process (noted as “baseline” in FIG. 3), one patient had mild depression, two had moderate depression, zero had moderately severe depression, and two had severe depression (out of 11 patients remaining in the study). The patients were then reassessed at 3, 6, and 9 months post-baseline (i.e., after completing a detoxification course, and prior to beginning the MDMA-assisted therapy regimen), wherein it was discovered that, at 3 months, two had mild depression, one had moderate depression, three had moderately severe depression, and one had severe depression (out of 9 patients remaining in the study); at 6 months, no patients suffered from mild or moderate depression, two had moderate severe depression, and one had severe depression (out of 6 patients remaining in the study); finally, at 9 months, one patient had mild depression, one had moderate depression, and one had moderate severe depression, with none having severe depression.
Prior to undergoing the disclosed methods, specifically during the screening session, 12 patients were assessed for levels of anxiety. […]

[13] = nine-month follow-up end point, of 14 participants

CC(=O)NCCCS(=O)(=O)O [acamprosate]
effect in relapse prevention (alcohol relapse): only minor positive effects in relapse prevention

CNC(C)Cc1ccc2c(c1)OCO2 (stereo not shown) [MDMA base]
solubility in water [1]: insoluble in water

O=C1CC[C@@]2(O)[C@H]3Cc4ccc(O)c5c4[C@@]2(CCN3CC2CC2)[C@H]1O5 [naltrexone]
effect in relapse prevention (alcohol relapse): only minor positive effects in relapse prevention

CCN(CC)C(=O)[C@@H]1C=C2c3cccc4[nH]cc(c34)C[C@H]2N(C)C1 [LSD]
abstinence rates (AUD): 30-50%

CNC(C)Cc1ccc2c(c1)OCO2 (stereo not shown) [MDMA, 1-(1,3-benzodioxol-5-yl)-N-methylpropan-2-amine]
temperature, blood pressure and heart rate during MDMA sessions (patients with AUD [2]; 26 sessions, except for one participant): remained within normal limits | Drug Effects scores (0-10) (patients with AUD [2]; by the end of the MDMA session day): all drug effects had returned to baseline | Subjective Units of Distress (SUDS) (patients with AUD [2]; hourly during the MDMA session): subsequently reduced during the course of the session | rise in blood pressure, temperature and heart rate over the course of the MDMA session (patients with AUD [2]; in vivo): mild, transient rise | neurocognitive impairments (patients with AUD [2]; weeks and months following participation): No participants reported any significant neurocognitive impairments | CYP3A4 activity (CYP3A4): decrease in CYP3A4 activity | tolerability of MDMA treatment (patients with AUD [3]; AUD post-detox, 187.5 mg each session): well-tolerated by all participants | desire to use illicit ecstasy/illicit MDMA (patients with AUD [3]; following clinical MDMA): No participants reported any desire to use illicit ecstasy/illicit MDMA | psychotic symptoms (patients with AUD [3]; in vivo): No psychotic symptoms were observed | time to peak plasma concentration ([4]; humans, doses 100-125 mg): 2 to 3 h | elimination half-life ([4]; similar results for doses 50-125 mg): 7 to 9 h | time of peak subjective effects ([5]; 100 mg MDMA, healthy volunteers, brain imaging studies): 100 min | duration of subjective effects ([5]; 100 mg MDMA, healthy volunteers): approximately 4.5 hours | time of peak subjective effects ([5]; Harris 2002): 90 to 120 min | time to return to baseline values ([5]; Harris 2002): 5 to 6 h | time to subjective effects ([5]; Harris 2002): approximately 45 mins | duration of effects ([5]; one dose): 4 to 5 h | onset of action ([5]; patients with PTSD, after the initial dose): 45 to 75 min | time of peak drug effects ([5]; patients with PTSD): 2 to 5 h | duration of effects ([5]; with the booster dose): 5 to 6 h | C-SSRS suicidal ideation, intent or plans or self-harm behavior (patients with AUD [6]): No participants reported current suicidal ideation, intent or plans or self-harm behavior | effect size, self-reported improvement (individuals with PTSD; 12 subjects, Oehen 2013): 1.1 | symptom relief, long-term follow-up (individuals with PTSD; chronic, treatment-resistant PTSD, Mithoefer 2010, 2013): statistically and clinically-significant gains in symptom relief with no subjects reporting harm | safety and tolerability (individuals with PTSD; phase 3, severe PTSD, even with comorbidities): safe and well-tolerated | efficacy vs therapy with inactive placebo (individuals with PTSD; phase 3, severe PTSD, Mitchell 2021): highly efficacious | PHQ-9 and GAD-7 scores (patients with AUD [7]; after screening and baseline time points): reduction in both anxiety and depression | psychosocial functioning (patients with AUD [7]; in vivo): improved across the cohort | quality of sleep, quality of life, compassion and empathy scales (patients with AUD [7]; in vivo): demonstrating benefits and improvements | increase in diastolic blood pressure [8]: 14.4-25 mmHg | increase in heart rate [8]: 26-30 bpm | POMS mood disturbance (patients with AUD [9]): no evidence of any mood disturbance; also recorded: sustained a positive mood for seven days | serious adverse reaction ([10]; 125 mg MDMA, third of three MDMA-assisted sessions, one individual): increased frequency of ventricular extrasystoles (PVCs) | commonly reported effects ([10]; Phase 1 studies in healthy volunteers): elevation in blood pressure and heart rate, increased anxiety or dysphoria, and dilated pupils | decrease in alcohol consumption (patients with AUD [11]; 3 months post-detox vs pre-detox): 87.1% | decrease in alcohol consumption (patients with AUD [11]; 6 months post-detox vs pre-detox): 71% | units of alcohol per week (patients with AUD [11]; 6 months post-detox, 130.6 units per week pre-detox): 38.0 units of alcohol per week | decrease in alcohol consumption (patients with AUD [11]; 9 months post-detox vs pre-detox): 85.7% | average units of alcohol consumption per week (patients with AUD [11]; 9 months post-detox, 130.6 units per week pre-detox): 18.7 units/week | outcomes of other comorbid addictions (SUDs and BAs) (patients with AUD [11]; along the course of treatment): unexpectedly improved outcomes of other comorbid addictions | participants drinking fewer than 14 units of alcohol per week (patients with AUD [11]; [13]): 11 participants | participants relapsed to drinking more than 14 units of alcohol per week (patients with AUD [11]; [13]): three | participants totally abstinent from alcohol (patients with AUD [11]; [13]): nine | participants drinking in excess of 14 units of alcohol a week (patients with AUD [11]; over 9 months, 75% in the Outcomes Study without MDMA): 21% | patients found to have anxiety [12]: about 67% | patients found to have depression [12]: 50%
